Laboratory results: ChEMBL document CHEMBL1156521, “Three-dimensional structure of the EphB2 receptor in complex with an antagonistic peptide reveals a novel mode of inhibition” (J Biol Chem, 2007)
Residues, ends and D or L forms follow the SMILES beside them.

Legend:
[1] = molecular target: T1, Ephrin type-B receptor 2 (Mus musculus, UniProt P54763); test: Binding affinity at mouse EphB2 receptor by ELISA
T1 sequence (P54763 whole entry): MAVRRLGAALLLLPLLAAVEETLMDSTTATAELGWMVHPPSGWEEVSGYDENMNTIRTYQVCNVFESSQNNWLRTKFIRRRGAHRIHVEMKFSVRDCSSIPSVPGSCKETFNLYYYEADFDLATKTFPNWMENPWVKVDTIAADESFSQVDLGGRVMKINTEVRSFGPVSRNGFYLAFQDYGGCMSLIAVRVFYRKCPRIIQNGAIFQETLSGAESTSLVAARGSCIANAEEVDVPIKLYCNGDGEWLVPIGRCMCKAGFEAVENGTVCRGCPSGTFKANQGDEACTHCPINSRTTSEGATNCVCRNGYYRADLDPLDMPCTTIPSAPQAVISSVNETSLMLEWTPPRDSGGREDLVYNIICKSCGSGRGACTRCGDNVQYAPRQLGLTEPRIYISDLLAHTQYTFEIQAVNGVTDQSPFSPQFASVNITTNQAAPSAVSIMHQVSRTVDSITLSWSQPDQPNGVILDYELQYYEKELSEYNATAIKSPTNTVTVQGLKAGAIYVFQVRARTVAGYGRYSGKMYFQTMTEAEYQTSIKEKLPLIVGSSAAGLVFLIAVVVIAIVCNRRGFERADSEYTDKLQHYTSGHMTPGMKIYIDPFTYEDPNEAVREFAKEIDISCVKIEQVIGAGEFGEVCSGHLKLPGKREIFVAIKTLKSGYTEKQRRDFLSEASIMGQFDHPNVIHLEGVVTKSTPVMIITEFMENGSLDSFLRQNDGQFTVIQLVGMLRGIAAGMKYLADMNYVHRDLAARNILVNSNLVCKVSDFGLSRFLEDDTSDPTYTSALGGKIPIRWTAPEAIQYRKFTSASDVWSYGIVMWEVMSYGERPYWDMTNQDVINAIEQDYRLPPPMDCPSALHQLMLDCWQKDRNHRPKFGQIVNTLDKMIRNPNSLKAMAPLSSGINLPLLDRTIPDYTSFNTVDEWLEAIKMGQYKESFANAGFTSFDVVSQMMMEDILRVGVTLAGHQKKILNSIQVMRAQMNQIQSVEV

[2] = molecular target: T2, Ephrin type-B receptor 2 (Homo sapiens, UniProt P29323); test: Binding affinity at human EphB2 receptor by isothermal titration calorimetry
T2 sequence (P29323 whole entry): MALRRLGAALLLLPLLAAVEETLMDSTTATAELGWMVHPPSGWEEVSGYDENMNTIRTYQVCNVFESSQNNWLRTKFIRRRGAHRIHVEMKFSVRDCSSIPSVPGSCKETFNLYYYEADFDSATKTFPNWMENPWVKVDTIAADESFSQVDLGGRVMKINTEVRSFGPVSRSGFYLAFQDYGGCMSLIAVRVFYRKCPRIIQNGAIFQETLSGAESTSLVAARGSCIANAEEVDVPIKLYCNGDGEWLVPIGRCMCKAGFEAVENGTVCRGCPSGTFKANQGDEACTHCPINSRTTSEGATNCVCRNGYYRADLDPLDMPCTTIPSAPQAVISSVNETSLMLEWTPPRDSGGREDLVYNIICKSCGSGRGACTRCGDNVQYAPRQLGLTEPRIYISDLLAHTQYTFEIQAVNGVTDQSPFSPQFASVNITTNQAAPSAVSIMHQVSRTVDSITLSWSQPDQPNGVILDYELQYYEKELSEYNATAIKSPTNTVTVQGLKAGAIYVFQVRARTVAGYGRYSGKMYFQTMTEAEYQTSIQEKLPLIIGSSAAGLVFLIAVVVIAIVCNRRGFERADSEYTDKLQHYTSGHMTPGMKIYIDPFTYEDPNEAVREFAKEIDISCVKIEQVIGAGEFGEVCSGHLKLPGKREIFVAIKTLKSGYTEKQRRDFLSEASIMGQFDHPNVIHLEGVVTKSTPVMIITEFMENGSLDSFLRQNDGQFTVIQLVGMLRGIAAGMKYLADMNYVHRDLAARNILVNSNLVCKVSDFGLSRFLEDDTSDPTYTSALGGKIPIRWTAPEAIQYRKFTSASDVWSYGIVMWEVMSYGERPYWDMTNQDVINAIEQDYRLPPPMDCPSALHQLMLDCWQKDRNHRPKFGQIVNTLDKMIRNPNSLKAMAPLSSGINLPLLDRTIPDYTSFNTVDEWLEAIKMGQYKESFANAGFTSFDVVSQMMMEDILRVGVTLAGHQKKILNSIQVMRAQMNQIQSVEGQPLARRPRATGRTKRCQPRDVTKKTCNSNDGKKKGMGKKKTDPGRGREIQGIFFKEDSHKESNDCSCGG

SMILES	Kd [2] [µM]	IC50 [1] [µM]
CC[C@H](C)[C@H](NC(=O)[C@H](Cc1c[nH]c2ccccc12)NC(=O)[C@H](CCC(=O)O)NC(=O)[C@H](CC(N)=O)NC(=O)[C@@H](N)CO)C(=O)N[C@@H](CCC(N)=O)C(=O)N1CCC[C@H]1C(=O)N[C@@H](CCCNC(=N)N)C(=O)N[C@@H](CC(C)C)C(=O)N1CCC[C@H]1C(=O)N[C@@H](CCC(N)=O)C(=O)N[C@@H](Cc1cnc[nH]1)C(=O)O	–	15
CC[C@H](C)[C@H](NC(=O)[C@H](Cc1c[nH]c2ccccc12)NC(=O)[C@H](CCC(=O)O)NC(=O)[C@H](CC(N)=O)NC(=O)[C@@H](N)CO)C(=O)N[C@@H](CCC(N)=O)C(=O)N1CCC[C@H]1C(=O)N[C@@H](C)C(=O)N[C@@H](CC(C)C)C(=O)N1CCC[C@H]1C(=O)N[C@@H](CCC(N)=O)C(=O)N[C@@H](Cc1cnc[nH]1)C(=O)O (H-SNEWIQPALPQH-OH)	> 50	–
CC[C@H](C)[C@H](NC(=O)[C@@H]1CCCN1C(=O)CNC(=O)[C@H](CC(N)=O)NC(=O)[C@@H]1CCCN1C(=O)[C@H](CO)NC(=O)[C@H](Cc1ccccc1)NC(=O)[C@H](CC(C)C)NC(=O)[C@H](Cc1ccc(O)cc1)NC(=O)[C@H](CC(N)=O)NC(=O)[C@@H](N)[C@H](C)O)C(=O)N[C@@H](C)C(=O)N[C@@H](CCCN=C(N)N)C(=O)N[C@@H](C)C(=O)N[C@@H](Cc1c[nH]c2ccccc12)C(=O)O	> 50	–

Further lines, with some results ahead:

Kd [2] [µM]	SMILES	IC50 [1] [µM]
> 50	CC[C@H](C)[C@H](NC(=O)[C@H](Cc1c[nH]c2ccccc12)NC(=O)[C@H](CCC(N)=O)NC(=O)[C@H](CC(N)=O)NC(=O)[C@@H](N)CO)C(=O)N[C@@H](CO)C(=O)N1CCC[C@H]1C(=O)N[C@@H](CCCNC(=N)N)C(=O)N[C@@H](CC(C)C)C(=O)N1CCC[C@H]1C(=O)N[C@@H](CCC(N)=O)C(=O)N[C@@H](Cc1cnc[nH]1)C(=O)O (H-SNQWISPRLPQH-OH)	–
> 50	CC[C@H](C)[C@H](NC(=O)[C@H](Cc1c[nH]c2ccccc12)NC(=O)[C@H](CCC(N)=O)NC(=O)[C@H](CC(N)=O)NC(=O)[C@@H](N)CO)C(=O)N[C@@H](CCC(N)=O)C(=O)N1CCC[C@H]1C(=O)N[C@@H](CCCN=C(N)N)C(=O)N[C@@H](CC(C)C)C(=O)N1CCC[C@H]1C(=O)N[C@@H](CCC(N)=O)C(=O)N[C@@H](Cc1cnc[nH]1)C(=O)O (H-SNQWIQPRLPQH-OH)	–
> 50	CC[C@H](C)[C@H](NC(=O)[C@H](Cc1c[nH]c2ccccc12)NC(=O)[C@H](CCC(N)=O)NC(=O)[C@H](CC(N)=O)NC(=O)[C@@H](N)CO)C(=O)NCC(=O)N1CCC[C@H]1C(=O)N[C@@H](C)C(=O)N[C@@H](CC(C)C)C(=O)N1CCC[C@H]1C(=O)N[C@@H](CCC(N)=O)C(=O)N[C@@H](Cc1cnc[nH]1)C(=O)O (H-SNQWIGPALPQH-OH)	–
> 50	CC[C@H](C)[C@H](NC(=O)[C@H](Cc1c[nH]c2ccccc12)NC(=O)[C@H](CCC(=O)O)NC(=O)[C@H](CC(N)=O)NC(=O)[C@@H](N)CO)C(=O)N[C@@H](CCC(N)=O)C(=O)N1CCC[C@H]1C(=O)N[C@@H](Cc1cnc[nH]1)C(=O)N[C@@H](CC(C)C)C(=O)N1CCC[C@H]1C(=O)N[C@@H](CCC(N)=O)C(=O)N[C@@H](Cc1cnc[nH]1)C(=O)O (H-SNEWIQPHLPQH-OH)	–
> 50	CC[C@H](C)[C@H](NC(=O)[C@H](Cc1c[nH]c2ccccc12)NC(=O)[C@H](CCC(N)=O)NC(=O)[C@H](CC(N)=O)NC(=O)[C@@H](N)CO)C(=O)N[C@@H](CC(C)C)C(=O)N1CCC[C@H]1C(=O)N[C@@H](CCCN=C(N)N)C(=O)N[C@@H](CC(C)C)C(=O)N1CCC[C@H]1C(=O)N[C@@H](CCC(N)=O)C(=O)N[C@@H](Cc1cnc[nH]1)C(=O)O (H-SNQWILPRLPQH-OH)	–
